Laboratory results taken from patent US4333930A, “Orthoarylideneaminophenethylamines and pharmaceutical compositions” (priority 1980, dated 1982).
Like-named read-outs stand apart in the source and are kept apart here.

What was measured:
phenylbenzoquinone (PBQ) = assay: Analgesic activity using phenylbenzoquinone (PBQ) as noxious agent, Table 2; assay type: in vivo, male Swiss mouse
Experimental: The analgesic activity was determined with the male Swiss mouse using phenylbenzoquinone (PBQ) (a variation of the method of Siegmund et al, Proc. Soc. Exp. Med., […], 95, 729-31) as the noxious agent. Twenty-eightminutes after having administered the test products in a suspension in a 6% gum base, the PBQ solution was injected. The mice were then observed ca. 5 mn. for the next five minutes.
% of analgesic activity as a function of
the dose expressed in mg/kg

[1] = Oral toxicity (mortality) in the mouse, Table 1; assay type: in vivo; conditions: mouse, in vivo, po, Swiss mice, 14 days
Experimental: (§1) The mortality percentages caused by the products of the present invention administered orally to Swiss mice are shown in Table 1. The animals, free of specific pathological organism were housed in an air conditioned room from 24 to 48 hours before the start of the experiments. They were divided up into lots of 5 males and 5 females. With the animals unfed for 24 hours, the substances were administered intragastrically in a base of 6% gum arabic in a volume equal to 0.1 ml for 10 g of animal weight. The mortality was recorded at 14 days.
(§2) % of mortality as a function of the dose

Swiss mice = assay: Oral toxicity (mortality) in the mouse, Table 1; assay type: in vivo; conditions: 14 days, 20160 min
Experimental: as §1, §2

[2] = test system: stereotype induced by apomorphine; assay: Antagonism of the stereotype induced by apomorphine, Table 4; assay type: in vivo; conditions: for % of activity vis-a-vis the stereotype induced by apomorphine: oral; for antagonism vis-a-vis the stereotype with apomorphine: in words
Description: (§3) The psychotropic profile of the present invention products has been characterized with the animals in numerous tests some of whose results are shown hereinafter. The products of the invention were always administered orally in 6% gum base.
% of activity vis-a-vis the stereotype
induced by apomorphine as a function of the
administered dose expressed in mg/kg

[3] = test system: number of escapes the animal made in 5 minutes; assay: Escape test, Table 3; assay type: in vivo, mouse; conditions: Mus musculus, po, 5 min, read-out: % of activity (variation of the number of escapes)
Description: The products of the invention were always administered orally in 6% gum base.
The notation NS signifies that the difference between the results noted for the product and the results noted for the excipient alone is not significant at the threshold 0.05 according to the Student t Test.

[4] = test system: trembling induced by oxotremorine; assay: Antagonism of trembling induced by oxotremorine, Table 7; assay type: in vivo; conditions: read-out: % of inhibition of trembling induced by oxotremorine
Description: as §3
(§4) Certain tests made it possible to show antidepressive activities. These are tests of antagonism to the effects of reserpine, oxotremorine (according to Everett G. M. et al, Science, 1956, 124, 79 and Levy J. et al, Therapie 1965, 20, 265) and to despair (according to Porsolt P. D. et al, Eur. J. Pharmacol., 1978, 47, 379-91).
% of inhibition of trembling induced by
oxotremorine as a function of the dose
administered expressed in mg/kg

[5] = test system: ptosis induced by reserpine; assay: Antagonism of ptosis induced by reserpine, Table 6; assay type: in vivo; conditions: po, read-out: % of inhibition of ptosis induced by reserpine
Description: as §3, §4
% of inhibition of ptosis induced by reserpine
as a function of the dose administered orally

[6] = test system: number of displacements of the animal; assay: Four plates test (anxiolytic activity), Table 5; assay type: in vivo; conditions: oral, mouse
Description: as §3
A certain number of products manifest an anxiolytic activity evidenced in the test with the four plates with the mouse (Table 5).
% of increase in the number of displacements of the
animal as a function of the dose expressed in mg/kg

despair = assay: Test of despair (Porsolt), Table 8; assay type: in vivo; conditions: oral
Description: as §3, §4
Test of despair: % of antagonism as a function
of the dose administered orally and expressed

[7] = 100 mg/kg, male Swiss mouse, PBQ

With `C(=Nc1cc2c(cc1CCN1CCCCC1)OCO2)c1cccnc1` [COR 01 174] the “% of analgesic activity” value (phenylbenzoquinone (PBQ); [7]) was 48%, the inhibition in vivo at 200 mg/kg (phenylbenzoquinone (PBQ); Mus musculus, 200 mg/kg, male Swiss mouse, PBQ, read-out: % of analgesic activity) was 18% and the mortality at 336 h ([1]; 2000 mg/kg) was 50%. For the same compound, the “% of mortality” value (Swiss mice; 500 mg/kg) was 0% and the “% of mortality” value (Swiss mice; 1000 mg/kg) was 10%.
With `CN(C)CCc1cc2c(cc1N=Cc1ccccc1)OCO2` [COR 01 209] the inhibition in vivo at 200 mg/kg (phenylbenzoquinone (PBQ); Mus musculus, read-out: % of analgesic activity, 200 mg/kg, male Swiss mouse, PBQ) was 17%, the “% of activity vis-a-vis the stereotype induced by apomorphine” value ([2]; 50 mg/kg) was -54% and the “% of activity vis-a-vis the stereotype induced by apomorphine” value ([2]; 100 mg/kg) was -51%. The “% of activity vis-a-vis the stereotype induced by apomorphine” value ([2]; 200 mg/kg) was -42%, the “antagonism vis-a-vis the stereotype with apomorphine” value [2] was “manifest an antagonism” and the change in vivo at 5 mg/kg [3] was -28%. It also gave a change in vivo at 25 mg/kg [3] of -38%, a change in vivo at 50 mg/kg [3] of -32% and a change in vivo at 100 mg/kg [3] of -37%. It also gave a change in vivo at 200 mg/kg [3] of -20%, a change in vivo at 50 mg/kg ([4]; po) of -60% and a change in vivo at 75 mg/kg ([4]; po) of -60%. It also gave a change in vivo at 100 mg/kg ([4]; po) of -55%, a change in vivo at 150 mg/kg ([4]; po) of -60% and a change in vivo at 200 mg/kg ([4]; po) of -30%. The mortality at 336 h ([1]; 1000 mg/kg) was 0%, the mortality at 336 h ([1]; 1500 mg/kg) was 40% and the mortality at 336 h ([1]; 2000 mg/kg) was 60%. The change in vivo at 200 mg/kg [5] was -45%.
With `CN(C)CCc1cc2c(cc1N=Cc1cccs1)OCO2` [COR 01 151] the “% of analgesic activity” value (phenylbenzoquinone (PBQ); 50 mg/kg, male Swiss mouse, PBQ) was 41%, the inhibition in vivo at 100 mg/kg (phenylbenzoquinone (PBQ); Mus musculus, read-out: % of analgesic activity, 100 mg/kg, male Swiss mouse, PBQ) was 79% and the change in vivo at 100 mg/kg [3] was -41%. For the same compound, the mortality at 336 h ([1]; 750 mg/kg) was 60%, the “% of mortality” value (Swiss mice; 150 mg/kg) was 0% and the “% of mortality” value (Swiss mice; 250 mg/kg) was 10%. For the same compound, the “% of mortality” value (Swiss mice; 500 mg/kg) was 40%.
For `C(=Nc1cc2c(cc1CCN1CCCCC1)OCO2)c1cccnc1` [COR 01 202], the “% of analgesic activity” value (phenylbenzoquinone (PBQ); [7]) was 0%, the “% of analgesic activity” value (phenylbenzoquinone (PBQ); 200 mg/kg, male Swiss mouse, PBQ) was 33% and the inhibition in vivo at 50 mg/kg (phenylbenzoquinone (PBQ); Mus musculus, 50 mg/kg, male Swiss mouse, PBQ, read-out: % of analgesic activity) was 2%. The “% of activity vis-a-vis the stereotype induced by apomorphine” value ([2]; 25 mg/kg) was -35%, the “% of activity vis-a-vis the stereotype induced by apomorphine” value ([2]; 50 mg/kg) was -32% and the “% of activity vis-a-vis the stereotype induced by apomorphine” value ([2]; 75 mg/kg) was -29%. The “% of activity vis-a-vis the stereotype induced by apomorphine” value ([2]; 200 mg/kg) was -20%, the “antagonism vis-a-vis the stereotype with apomorphine” value [2] was “manifest an antagonism” and the “% of increase in the number of displacements of the animal” value ([6]; 25 mg/kg) was “+48%”. For the same compound, the “% of increase in the number of displacements of the animal” value ([6]; 50 mg/kg) was “+96%”, the change in vivo at 25 mg/kg ([4]; 25 mg/kg, oral) was 0% and the change in vivo at 50 mg/kg ([4]; 50 mg/kg, oral) was -67%. The change in vivo at 75 mg/kg ([4]; 75 mg/kg, oral) was -44%, the mortality at 336 h ([1]; 750 mg/kg) was 30% and the “% of mortality” value (Swiss mice; 500 mg/kg) was 10%. The “% of mortality” value (Swiss mice; 1000 mg/kg) was 60%, the “Test of despair: % of antagonism” value (despair; 50 mg/kg) was -49% and the “Test of despair: % of antagonism” value (despair; 100 mg/kg) was -67%.
